Measurements as given in ChEMBL document CHEMBL1125622 (J Med Chem, 1991).

Legend:
[1] = molecular target: T1, Dopamine beta-hydroxylase (Bos taurus) (UniProt P15101); assay: Kinetic parameter kcat was measured for dopamine beta-monooxygenase
T1 sequence (whole entry): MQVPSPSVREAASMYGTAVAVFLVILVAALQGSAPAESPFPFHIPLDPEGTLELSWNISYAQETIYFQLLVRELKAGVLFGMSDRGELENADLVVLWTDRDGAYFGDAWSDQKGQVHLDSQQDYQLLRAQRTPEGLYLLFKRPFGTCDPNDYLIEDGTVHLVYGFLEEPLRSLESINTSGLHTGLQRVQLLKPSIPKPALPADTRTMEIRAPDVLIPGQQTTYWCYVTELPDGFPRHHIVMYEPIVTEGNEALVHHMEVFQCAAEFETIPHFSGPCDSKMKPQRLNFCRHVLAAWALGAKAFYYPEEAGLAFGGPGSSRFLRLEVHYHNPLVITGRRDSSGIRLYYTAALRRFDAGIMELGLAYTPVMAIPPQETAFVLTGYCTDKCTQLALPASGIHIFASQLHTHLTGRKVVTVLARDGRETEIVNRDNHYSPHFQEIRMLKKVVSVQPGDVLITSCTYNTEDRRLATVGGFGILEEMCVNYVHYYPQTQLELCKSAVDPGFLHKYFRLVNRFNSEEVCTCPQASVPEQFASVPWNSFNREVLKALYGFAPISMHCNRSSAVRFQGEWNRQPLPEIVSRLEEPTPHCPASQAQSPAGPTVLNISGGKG

[2] = molecular target: T1, Dopamine beta-hydroxylase (Bos taurus); assay: Kcat/Km value of the compound; parameters: unit not given here
Rattus norvegicus = species on record: Rattus norvegicus; assay: The ability to inhibit dopamine uptake was measured in rat brain striatal synaptosomes; format: functional
[3] = substrate: C[C@@H](N)CSc1ccccc1; assay: (§1) Kinetic parameter Km was measured for dopamine beta-monooxygenase
[4] = substrate: C[C@H](N)CSc1ccccc1; assay: as §1

C[C@@H](N)CSc1ccccc1
k cat [1]: 13 s⁻¹ | Ratio [2]: 700

NCCc1ccc(O)cc1
k cat [1]: 121 s⁻¹ | Ratio [2]: 60000

C[C@H](N)CSc1ccccc1
k cat [1]: 37 s⁻¹ | IC50 (Rattus norvegicus): 6.5 µM | Ratio [2]: 4800

NCCCc1ccccc1
k cat [1]: 17 s⁻¹ | Ratio [2]: 800

B1: Dopamine beta-hydroxylase (Bos taurus), P15101 (protein)
chain: T1 sequence (whole entry)
Km [3]: 19 mM | Km [4]: 7.7 mM
